Assay results: US8993574B2, “Pyrrole antifungal agents” (F2G Ltd, priority 2008, dated 2015)
≈ marks a conversion by molar mass, not a printed value.

Legend:
Assay type in all cases: cell-based
[1] = test system: Aspergillus fumigatus AF210; experiment: MIC, YAG medium; conditions: 24 h at 35° C, MIC banded into grades; for MIC: Aspergillus fumigatus, read-out: MIC grade, A. fumigatus 210
Method in brief: (§1)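 Growth inhibition was measured by absorbance at 485 nm following 24 h at 35° C. Spores harvested after 5 days on Sabouraud agar served as inoculum (1−2×10^4 cfu/mL, YAG medium). The lowest drug level producing >70% inhibition was taken as MIC.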

[2] = test system: Aspergillus fumigatus AF293; experiment: MIC, YAG medium; conditions: 24 h at 35° C, MIC banded into grades; for MIC: Aspergillus fumigatus, read-out: MIC grade, A. fumigatus
Method in brief: as §1

[3] = test system: Aspergillus terreus AT49; experiment: MIC, YAG medium; conditions: 24 h at 35° C, MIC banded into grades; for MIC: Aspergillus terreus, read-out: MIC grade, A. terreus 49
Method in brief: as §1

[4] = test system: Aspergillus terreus AT4; experiment: MIC, YAG medium; conditions: 24 h at 35° C, MIC banded into grades; for MIC: Aspergillus terreus, read-out: MIC grade, A. terreus
Method in brief: as §1

[5] = test system: Aspergillus flavus; experiment: MIC, YAG medium; conditions: 24 h at 35° C, MIC banded into grades; for MIC: Aspergillus flavus, 24 h, read-out: MIC grade, A. flavus
Method in brief: as §1

[6] = test system: Aspergillus niger; experiment: MIC, YAG medium; conditions: 24 h at 35° C, MIC banded into grades; for MIC: Aspergillus niger, read-out: MIC grade, A. niger
Method in brief: as §1

[7] = test system: Aspergillus fumigatus AF210; experiment: MIC, RPMI medium; conditions: for MIC: Aspergillus fumigatus, AF210, MIC banded into grades, read-out: MIC grade, A. fumigatus 210
Method in brief: (§2)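 Minimum inhibitory concentrations were determined in glucose-supplemented (2%) RPMI buffered to pH 7.0 with 0.135 M MOPS. Wells held 1−2×10^4 cfu/mL and compound from 50 to 0.05 mg/L, incubated 24-48 h at 35° C, with >80% growth reduction by OD 485 nm as endpoint.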

[8] = test system: Aspergillus fumigatus AF293; experiment: MIC, RPMI medium; conditions: for MIC: Aspergillus fumigatus, AF293, MIC banded into grades, read-out: MIC grade, A. fumigatus
Method in brief: as §2

[9] = test system: Aspergillus terreus AT49; experiment: MIC, RPMI medium; conditions: for MIC: Aspergillus terreus, AT49, MIC banded into grades, read-out: MIC grade, A. terreus 49
Method in brief: as §2

[10] = test system: Aspergillus terreus AT4; experiment: MIC, RPMI medium; conditions: for MIC: Aspergillus terreus, AT4, MIC banded into grades, read-out: MIC grade, A. terreus
Method in brief: as §2

[11] = test system: Aspergillus flavus; experiment: MIC, RPMI medium; conditions: MIC banded into grades; for MIC: Aspergillus flavus, read-out: MIC grade, A. flavus
Method in brief: as §2

[12] = test system: Aspergillus niger; experiment: MIC, RPMI medium; conditions: MIC banded into grades; for MIC: Aspergillus niger, read-out: MIC grade, A. niger
Method in brief: as §2

Row | SMILES | MIC [1] | MIC [2] | MIC [3] | MIC [4] | MIC [5] | MIC [6] | MIC [7] | MIC [8] | MIC [9] | MIC [10] | MIC [11] | MIC [12] | further results
1 | COCCc1cc(-c2ccccc2)c(C(=O)C(=O)Nc2ccc(N3CCN(c4cc(C)cc(C)n4)CC3)cc2)n1C [Example 129, N-{4-[4-(4,6-Dimethyl-pyridin-2-yl)-piperazin-1-yl]-phenyl}-2-[5-(2-methoxy-ethyl)-1-methyl-3-phenyl-1H-pyrrol-2-yl]-2-oxo-acetamide] | < 1 µg/mL | < 1 µg/mL | < 1 µg/mL | < 1 µg/mL | < 1 µg/mL | < 1 µg/mL | 1 to 10 µg/mL (≈ 1.81 to 18.1 µM) | < 1 µg/mL | 1 to 10 µg/mL (≈ 1.81 to 18.1 µM) | 1 to 10 µg/mL (≈ 1.81 to 18.1 µM) | < 1 µg/mL | 1 to 10 µg/mL (≈ 1.81 to 18.1 µM) | –
2 | COCc1cc(-c2ccccc2)c(C(=O)C(=O)Nc2ccc(N3CCN(c4cc(C)cc(C)n4)CC3)cc2)n1C [Example 130, N-{4-[4-(4,6-Dimethyl-pyridin-2-yl)-piperazin-1-yl]-phenyl}-2-(5-methoxymethyl-1-methyl-3-phenyl-1H-pyrrol-2-yl)-2-oxo-acetamide] | < 1 µg/mL | < 1 µg/mL | < 1 µg/mL | < 1 µg/mL | < 1 µg/mL | < 1 µg/mL | < 1 µg/mL | < 1 µg/mL | < 1 µg/mL | < 1 µg/mL | < 1 µg/mL | < 1 µg/mL | –
3 | COCc1cc(-c2ccccc2)c(C(=O)C(=O)Nc2ccc(N3CCN(c4cc(C)cc(C)n4)CC3)cc2)n1COC [Example 131, 2-(1,5-Bis-methoxymethyl-3-phenyl-1H-pyrrol-2-yl)-N-{4-[4-(4,6-dimethyl-pyridin-2-yl)-piperazine-1-yl]-phenyl}-2-oxo-acetamide] | 1 to 10 µg/mL (≈ 1.76 to 17.6 µM) | 1 to 10 µg/mL (≈ 1.76 to 17.6 µM) | 1 to 10 µg/mL (≈ 1.76 to 17.6 µM) | 1 to 10 µg/mL (≈ 1.76 to 17.6 µM) | 1 to 10 µg/mL (≈ 1.76 to 17.6 µM) | 1 to 10 µg/mL (≈ 1.76 to 17.6 µM) | > 10 µg/mL | > 10 µg/mL | 1 to 10 µg/mL (≈ 1.76 to 17.6 µM) | 1 to 10 µg/mL (≈ 1.76 to 17.6 µM) | > 10 µg/mL | 1 to 10 µg/mL (≈ 1.76 to 17.6 µM) | –
4 | CCOCn1c(C)cc(-c2ccccc2)c1C(=O)C(=O)Nc1ccc(N2CCN(c3cc(C)cc(C)n3)CC2)cc1 [Example 132, N-{4-[4-(4,6-Dimethyl-pyridin-2-yl)-piperazin-1-yl]-phenyl}-2-(1-ethoxymethyl-5-methyl-3-phenyl-1H-pyrrol-2-yl)-2-oxo-acetamide] | < 1 µg/mL | < 1 µg/mL | < 1 µg/mL | < 1 µg/mL | < 1 µg/mL | < 1 µg/mL | < 1 µg/mL | < 1 µg/mL | < 1 µg/mL | < 1 µg/mL | > 10 µg/mL | < 1 µg/mL | –
5 | CSCCn1c(C)cc(-c2ccccc2)c1C(=O)C(=O)Nc1ccc(N2CCN(c3cc(C)cc(C)n3)CC2)cc1 [Example 133, N-{4-[4-(4,6-Dimethyl-pyridin-2-yl)-piperazin-1-yl]-phenyl}-2-[5-methyl-1-(2-methylsulfanyl-ethyl)-3-phenyl-1H-pyrrol-2-yl]-2-oxo-acetamide] | < 1 µg/mL | < 1 µg/mL | < 1 µg/mL | < 1 µg/mL | 1 to 10 µg/mL (≈ 1.76 to 17.6 µM) | < 1 µg/mL | < 1 µg/mL | < 1 µg/mL | 1 to 10 µg/mL (≈ 1.76 to 17.6 µM) | 1 to 10 µg/mL (≈ 1.76 to 17.6 µM) | > 10 µg/mL | < 1 µg/mL | –
6 | Cc1cc(C)nc(N2CCN(c3ccc(NC(=O)C(=O)c4c(-c5ccccc5)cc(C)n4CCOc4ccccc4)cc3)CC2)c1 [Example 134, N-{4-[4-(4,6-Dimethyl-pyridin-2-yl)-piperazin-1-yl]-phenyl}-2-[5-methyl-1-(2-phenoxy-ethyl)-3-phenyl-1H-pyrrol-2-yl]-2-oxo-acetamide] | > 10 µg/mL | 1 to 10 µg/mL (≈ 1.63 to 16.3 µM) | 1 to 10 µg/mL (≈ 1.63 to 16.3 µM) | 1 to 10 µg/mL (≈ 1.63 to 16.3 µM) | 1 to 10 µg/mL (≈ 1.63 to 16.3 µM) | > 10 µg/mL | > 10 µg/mL | > 10 µg/mL | > 10 µg/mL | > 10 µg/mL | > 10 µg/mL | > 10 µg/mL | –
7 | CCCCOCn1c(C)cc(-c2ccccc2)c1C(=O)C(=O)Nc1ccc(N2CCN(c3cc(C)cc(C)n3)CC2)cc1 [Example 135, 2-(1-Butoxymethyl-5-methyl-3-phenyl-1H-pyrrol-2-yl)-N-{4-[4-(4,6-dimethyl-pyridin-2-yl)-piperazin-1-yl]-phenyl}-2-oxo-acetamide] | 1 to 10 µg/mL (≈ 1.72 to 17.2 µM) | < 1 µg/mL | > 10 µg/mL | 1 to 10 µg/mL (≈ 1.72 to 17.2 µM) | > 10 µg/mL | 1 to 10 µg/mL (≈ 1.72 to 17.2 µM) | > 10 µg/mL | > 10 µg/mL | > 10 µg/mL | > 10 µg/mL | > 10 µg/mL | > 10 µg/mL | –
8 | CCOCCCn1c(C)cc(-c2ccccc2)c1C(=O)C(=O)Nc1ccc(N2CCN(c3cc(C)cc(C)n3)CC2)cc1 [Example 136, N-{4-[4-(4,6-Dimethyl-pyridin-2-yl)-piperazin-1-yl]-phenyl}-2-[1-(3-ethoxy-propyl)-5-methy-3-phenyl-1H-pyrrol-2-yl]-2-oxo-acetamide] | – | – | – | – | – | – | – | – | – | – | – | – | MIC grade, A. fumigatus 210 [1]: 3 (A grade of 3 represents an MIC of less than 1 mg/L); MIC grade, A. fumigatus [2]: 3 (A grade of 3 represents an MIC of less than 1 mg/L); MIC grade, A. terreus 49 [3]: 3 (A grade of 3 represents an MIC of less than 1 mg/L); MIC grade, A. terreus [4]: 2 (A grade of 2 represents an MIC of from 1 to 10 mg/L); MIC grade, A. flavus [5]: 3 (A grade of 3 represents an MIC of less than 1 mg/L); MIC grade, A. niger [6]: 3 (A grade of 3 represents an MIC of less than 1 mg/L); MIC grade, A. fumigatus 210 ([7]; MIC banded into grades): 2 (A grade of 2 represents an MIC of from 1 to 10 mg/L); MIC grade, A. fumigatus ([8]; MIC banded into grades): 2 (A grade of 2 represents an MIC of from 1 to 10 mg/L); MIC grade, A. terreus 49 ([9]; MIC banded into grades): 2 (A grade of 2 represents an MIC of from 1 to 10 mg/L); MIC grade, A. terreus ([10]; MIC banded into grades): 2 (A grade of 2 represents an MIC of from 1 to 10 mg/L); MIC grade, A. flavus [11]: 2 (A grade of 2 represents an MIC of from 1 to 10 mg/L); MIC grade, A. niger [12]: 2 (A grade of 2 represents an MIC of from 1 to 10 mg/L)
9 | CSCn1c(C)cc(-c2ccccc2)c1C(=O)C(=O)Nc1ccc(N2CCN(c3cc(C)cc(C)n3)CC2)cc1 [Example 137, N-{4-[4-(4,6-Dimethyl-pyridin-2-yl)-piperazin-1-yl]-phenyl}-2-(5-methyl-1-methylsulfanylmethyl-3-phenyl-1H-pyrrol-2-yl)-2-oxo-acetamide] | < 1 µg/mL | < 1 µg/mL | < 1 µg/mL | < 1 µg/mL | < 1 µg/mL | < 1 µg/mL | 1 to 10 µg/mL (≈ 1.81 to 18.1 µM) | < 1 µg/mL | 1 to 10 µg/mL (≈ 1.81 to 18.1 µM) | 1 to 10 µg/mL (≈ 1.81 to 18.1 µM) | 1 to 10 µg/mL (≈ 1.81 to 18.1 µM) | 1 to 10 µg/mL (≈ 1.81 to 18.1 µM) | –
10 | COCCOCn1c(C)cc(-c2ccccc2)c1C(=O)C(=O)Nc1ccc(N2CCN(c3cc(C)cc(C)n3)CC2)cc1 [Example 138, N-{4-[4-(4,6-Dimethyl-pyridin-2-yl)-piperazin-1-yl]-phenyl}-2-[1-(2-methoxy-ethoxymethyl)-5-methyl-3-phenyl-1H-pyrrol-2-yl]-2-oxo-acetamide] | < 1 µg/mL | < 1 µg/mL | < 1 µg/mL | < 1 µg/mL | 1 to 10 µg/mL (≈ 1.72 to 17.2 µM) | < 1 µg/mL | < 1 µg/mL | < 1 µg/mL | 1 to 10 µg/mL (≈ 1.72 to 17.2 µM) | 1 to 10 µg/mL (≈ 1.72 to 17.2 µM) | 1 to 10 µg/mL (≈ 1.72 to 17.2 µM) | 1 to 10 µg/mL (≈ 1.72 to 17.2 µM) | –
11 | CCCOCn1c(C)cc(-c2ccccc2)c1C(=O)C(=O)Nc1ccc(N2CCN(c3cc(C)cc(C)n3)CC2)cc1 [Example 139, N-{4-[4-(4,6-Dimethyl-pyridin-2-yl)-piperazin-1-yl]-phenyl}-2-(5-methyl-3-phenyl-1-propoxymethyl-1H-pyrrol-2-yl)-2-oxo-acetamide] | < 1 µg/mL | < 1 µg/mL | < 1 µg/mL | 1 to 10 µg/mL (≈ 1.77 to 17.7 µM) | 1 to 10 µg/mL (≈ 1.77 to 17.7 µM) | < 1 µg/mL | 1 to 10 µg/mL (≈ 1.77 to 17.7 µM) | 1 to 10 µg/mL (≈ 1.77 to 17.7 µM) | 1 to 10 µg/mL (≈ 1.77 to 17.7 µM) | 1 to 10 µg/mL (≈ 1.77 to 17.7 µM) | > 10 µg/mL | 1 to 10 µg/mL (≈ 1.77 to 17.7 µM) | –
12 | CCCOCCn1c(C)cc(-c2ccccc2)c1C(=O)C(=O)Nc1ccc(N2CCN(c3cc(C)cc(C)n3)CC2)cc1 [Example 140, N-{4-[4-(4,6-Dimethyl-pyridin-2-yl)-piperazin-1-yl]-phenyl}-2-[5-methyl-3-phenyl-1-(2-propoxy-ethyl)-1H-pyrrol-2-yl]-2-oxo-acetamide] | < 1 µg/mL | 1 to 10 µg/mL (≈ 1.72 to 17.2 µM) | 1 to 10 µg/mL (≈ 1.72 to 17.2 µM) | 1 to 10 µg/mL (≈ 1.72 to 17.2 µM) | 1 to 10 µg/mL (≈ 1.72 to 17.2 µM) | 1 to 10 µg/mL (≈ 1.72 to 17.2 µM) | > 10 µg/mL | > 10 µg/mL | > 10 µg/mL | > 10 µg/mL | > 10 µg/mL | > 10 µg/mL | –
